This is an account of results in PubChem BioAssay (NCI).

Among the test systems are COLO 205 colon; HCT-15 colon; HL-60(TB) leukemia; LOX IMVI melanoma; OVCAR-3 ovarian; SF-539 CNS; SK-MEL-2 melanoma; SK-MEL-28 melanoma; SNB-75 CNS; SR leukemia.
What all share (assay): NCI-60 cell line screen, 48 h

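In this assay, cells in 96-well plates receive the compound at five concentrations for 48 hours. Endpoints are linearly interpolated between the surrounding concentrations. At the GI50, growth is halved. Definition used: TGI = concentration required for complete inhibition of growth.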

With `O=C(Nc1ccc(Cl)c(Cl)c1)Nc1ccccc1O`, the GI50 was 5.38 µM in the assay on COLO 205 colon; 4.46 µM in the assay with HCT-15 colon; 3.7 µM in the assay on HL-60(TB) leukemia; 4.58 µM in the assay on LOX IMVI melanoma; 3.24 µM in the assay with OVCAR-3 ovarian; 12.4 µM in the assay on SF-539 CNS. Besides, the GI50 with SK-MEL-2 melanoma was 5.51 µM; in the assay on SK-MEL-28 melanoma, 12.5 µM; with SNB-75 CNS it was 13.7 µM; with SR leukemia it was 4.57 µM. Also, the TGI in the assay on COLO 205 colon is 18.6 µM; with HCT-15 colon, 23.9 µM; with HL-60(TB) leukemia it was 36.2 µM; with LOX IMVI melanoma, 24.2 µM; in the assay with OVCAR-3 ovarian it was 13.5 µM; with SF-539 CNS, 30.4 µM. The TGI in the assay with SK-MEL-2 melanoma came to 17 µM; with SK-MEL-28 melanoma it was 27.3 µM; with SNB-75 CNS, 50.5 µM; with SR leukemia, 24.8 µM.

As for `Clc1ccc(N=CNc2ccc(-c3nc4ccccc4o3)cc2)cc1`, the GI50 with COLO 205 colon is 22.7 µM; in the assay with HCT-15 colon it was 24.5 µM; with HL-60(TB) leukemia, 38.5 µM; with LOX IMVI melanoma it was 12.5 µM; in the assay on OVCAR-3 ovarian, 11.2 µM; in the assay on SF-539 CNS, 14.8 µM. Further, the GI50 was 30 µM in the assay with SK-MEL-2 melanoma and 40.6 µM with SR leukemia. The TGI in the assay on COLO 205 colon is greater than 100 µM; in the assay on HCT-15 colon, greater than 100 µM; in the assay with HL-60(TB) leukemia, greater than 100 µM; with LOX IMVI melanoma, 25.8 µM; in the assay on OVCAR-3 ovarian, 25.3 µM; with SF-539 CNS, 45.7 µM. Also, the TGI in the assay with SK-MEL-2 melanoma and with SR leukemia was greater than 100 µM each time.

Consider `N#Cc1ccc(OC(=O)Nc2ccc(Cl)c(Cl)c2)cc1`, for which the GI50 is 3.79 µM in the assay on COLO 205 colon; 2.94 µM in the assay with HCT-15 colon; 5.7 µM in the assay on HL-60(TB) leukemia; 3.01 µM in the assay on OVCAR-3 ovarian; 4.43 µM with SF-539 CNS; 4.13 µM in the assay with SK-MEL-2 melanoma. The values for the GI50 in the assay with SK-MEL-28 melanoma, in the assay with SNB-75 CNS and in the assay with SR leukemia were 5.53 µM, 2.78 µM and 7.67 µM, respectively. Further, the TGI in the assay on COLO 205 colon is 11.4 µM; in the assay on HCT-15 colon, 13.8 µM; with HL-60(TB) leukemia, 30.9 µM; with OVCAR-3 ovarian, 9.1 µM; with SF-539 CNS, 33 µM; with SK-MEL-2 melanoma, 18 µM. For the same molecule, the TGI in the assay with SK-MEL-28 melanoma was greater than 100 µM; in the assay on SNB-75 CNS, 20.6 µM; in the assay on SR leukemia, 93.2 µM.

On to `C[C@H]1CCC/C=C/[C@@H]2C[C@H](O)C[C@H]2[C@H](O)[C@@H](SCC(O)CO)CC(=O)O1` (stereo partly drawn), for which the GI50 in the assay on COLO 205 colon was 17.5 µM; with HCT-15 colon it was 18.9 µM; in the assay on HL-60(TB) leukemia, 29.3 µM; with OVCAR-3 ovarian, 22.3 µM; in the assay with SF-539 CNS, 31.8 µM; with SK-MEL-2 melanoma, 25.2 µM. The GI50 was 13.3 µM in the assay with SK-MEL-28 melanoma, 6.77 µM in the assay with SNB-75 CNS and 29 µM in the assay with SR leukemia. In addition, the TGI is 34.4 µM in the assay on COLO 205 colon; 46.2 µM in the assay on HCT-15 colon; 94.7 µM with HL-60(TB) leukemia; 63.3 µM with OVCAR-3 ovarian; greater than 100 µM with SF-539 CNS; 66.9 µM in the assay on SK-MEL-2 melanoma. The TGI was greater than 100 µM in the assay with SK-MEL-28 melanoma, greater than 100 µM in the assay on SNB-75 CNS and 96.8 µM in the assay on SR leukemia.

Take `CCCCc1c2c(nc3c1CCC/C3=C\c1ccccc1)/C(=C/c1ccccc1)CCC2`: the TGI in the assay with COLO 205 colon, in the assay on HCT-15 colon, in the assay on HL-60(TB) leukemia, with LOX IMVI melanoma, in the assay on OVCAR-3 ovarian and in the assay with SF-539 CNS was greater than 100 µM throughout. Moreover, the TGI in the assay on SK-MEL-28 melanoma and in the assay with SR leukemia was greater than 100 µM each time.

Regarding `O=C(OCC(OC(=O)c1ccccc1)C(OC(=O)c1ccccc1)C(OC(=O)c1ccccc1)c1cnn(-c2ccccc2)n1)c1ccccc1` (stereo not drawn), the TGI in the assay with COLO 205 colon, in the assay on HCT-15 colon, in the assay with HL-60(TB) leukemia, in the assay on LOX IMVI melanoma, with OVCAR-3 ovarian and in the assay on SF-539 CNS was greater than 100 µM each time. Moreover, the TGI in the assay on SK-MEL-28 melanoma and in the assay with SR leukemia was greater than 100 µM in each case.

As to `CCOC(=O)/C(=C/c1cccc(C#N)c1)N(CC)CC`, the TGI in the assay on COLO 205 colon, in the assay on HCT-15 colon, with HL-60(TB) leukemia, in the assay on LOX IMVI melanoma, in the assay with SF-539 CNS and in the assay on SK-MEL-2 melanoma was greater than 100 µM each time. In addition, the TGI in the assay on SK-MEL-28 melanoma, in the assay on SNB-75 CNS and in the assay on SR leukemia was greater than 100 µM each time.

With `COC(=O)CCC1=C(CC(=O)OC)C(C)=N/C1=C\c1[nH]c(-c2ccc[nH]2)cc1OC`, the GI50 in the assay on COLO 205 colon is 3.79 µM; with HCT-15 colon it was 2.04 µM; in the assay with HL-60(TB) leukemia, 2.56 µM; in the assay on LOX IMVI melanoma, 0.788 µM; with OVCAR-3 ovarian, 2.43 µM; in the assay with SF-539 CNS, 5.63 µM. Moreover, the GI50 in the assay on SK-MEL-28 melanoma was 12.3 µM; with SNB-75 CNS, 4.9 µM; in the assay on SR leukemia it was 1.71 µM. The TGI with COLO 205 colon stood at 16.3 µM; with HCT-15 colon, 15.2 µM; in the assay on HL-60(TB) leukemia, 14.3 µM; in the assay with LOX IMVI melanoma, 3.11 µM; in the assay with OVCAR-3 ovarian, 10.2 µM; in the assay on SF-539 CNS, 20.6 µM. The TGI amounted to 25 µM with SK-MEL-28 melanoma, 19.1 µM in the assay with SNB-75 CNS and 7.7 µM with SR leukemia.

Turning to `C=C1CC[C@@H](C(C)C)C[C@@H]2[C@H]([C@H](O)C[C@]2(C)O)[C@@]2(C)CC[C@@H]1O2`, the GI50 was 20 µM in the assay with COLO 205 colon; 14.6 µM in the assay on HCT-15 colon; 22.6 µM in the assay on HL-60(TB) leukemia; 14.7 µM in the assay on LOX IMVI melanoma; 14.8 µM in the assay with OVCAR-3 ovarian; 24.4 µM in the assay with SF-539 CNS. Moreover, the values for the GI50 in the assay with SK-MEL-2 melanoma, with SNB-75 CNS and with SR leukemia were 23.2 µM, 17 µM and 14.2 µM, respectively. The TGI came out at 34.9 µM with COLO 205 colon; 27.7 µM with HCT-15 colon; 57 µM in the assay with HL-60(TB) leukemia; 27.9 µM in the assay with LOX IMVI melanoma; 29.5 µM with OVCAR-3 ovarian; 43.3 µM with SF-539 CNS. Besides, the TGI is 50.6 µM with SK-MEL-2 melanoma, 38.9 µM in the assay with SNB-75 CNS and 30.9 µM in the assay on SR leukemia.
